Format in all cases: cell-based
One assay addresses T1, ABCC6 WT (Homo sapiens, UniProt O95255).
T1 construct: expressed in transfected cells; host or cells: HEK-293 (transient, Lipofectamine 2000)
The assay is described as follows: ABCC6 WT assay: HiBit protein expression. The conditions noted are these: HEK-293 cells transiently expressing HiBit-tagged ABCC6 WT; 24 h treatment; top concentration 20 μM; read-out: ABCC6 WT EC50, Emax. The method in brief: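 HEK-293 cells transiently transfected with HiBit-tagged human ABCC6 WT cDNA, seeded 24 h post-transfection, treated 24 h at 37° C with ten 2-fold doses (top 20 μM final, 0.15% DMSO). HiBit lytic luminescence reports protein expression; Emax and EC50 derived.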

A further assay deals with T2, ABCA4 P1380L (Homo sapiens, UniProt P78363, P1380L).
T2 construct: expressed in transfected cells
T2 sequence (P78363 whole entry P1380L): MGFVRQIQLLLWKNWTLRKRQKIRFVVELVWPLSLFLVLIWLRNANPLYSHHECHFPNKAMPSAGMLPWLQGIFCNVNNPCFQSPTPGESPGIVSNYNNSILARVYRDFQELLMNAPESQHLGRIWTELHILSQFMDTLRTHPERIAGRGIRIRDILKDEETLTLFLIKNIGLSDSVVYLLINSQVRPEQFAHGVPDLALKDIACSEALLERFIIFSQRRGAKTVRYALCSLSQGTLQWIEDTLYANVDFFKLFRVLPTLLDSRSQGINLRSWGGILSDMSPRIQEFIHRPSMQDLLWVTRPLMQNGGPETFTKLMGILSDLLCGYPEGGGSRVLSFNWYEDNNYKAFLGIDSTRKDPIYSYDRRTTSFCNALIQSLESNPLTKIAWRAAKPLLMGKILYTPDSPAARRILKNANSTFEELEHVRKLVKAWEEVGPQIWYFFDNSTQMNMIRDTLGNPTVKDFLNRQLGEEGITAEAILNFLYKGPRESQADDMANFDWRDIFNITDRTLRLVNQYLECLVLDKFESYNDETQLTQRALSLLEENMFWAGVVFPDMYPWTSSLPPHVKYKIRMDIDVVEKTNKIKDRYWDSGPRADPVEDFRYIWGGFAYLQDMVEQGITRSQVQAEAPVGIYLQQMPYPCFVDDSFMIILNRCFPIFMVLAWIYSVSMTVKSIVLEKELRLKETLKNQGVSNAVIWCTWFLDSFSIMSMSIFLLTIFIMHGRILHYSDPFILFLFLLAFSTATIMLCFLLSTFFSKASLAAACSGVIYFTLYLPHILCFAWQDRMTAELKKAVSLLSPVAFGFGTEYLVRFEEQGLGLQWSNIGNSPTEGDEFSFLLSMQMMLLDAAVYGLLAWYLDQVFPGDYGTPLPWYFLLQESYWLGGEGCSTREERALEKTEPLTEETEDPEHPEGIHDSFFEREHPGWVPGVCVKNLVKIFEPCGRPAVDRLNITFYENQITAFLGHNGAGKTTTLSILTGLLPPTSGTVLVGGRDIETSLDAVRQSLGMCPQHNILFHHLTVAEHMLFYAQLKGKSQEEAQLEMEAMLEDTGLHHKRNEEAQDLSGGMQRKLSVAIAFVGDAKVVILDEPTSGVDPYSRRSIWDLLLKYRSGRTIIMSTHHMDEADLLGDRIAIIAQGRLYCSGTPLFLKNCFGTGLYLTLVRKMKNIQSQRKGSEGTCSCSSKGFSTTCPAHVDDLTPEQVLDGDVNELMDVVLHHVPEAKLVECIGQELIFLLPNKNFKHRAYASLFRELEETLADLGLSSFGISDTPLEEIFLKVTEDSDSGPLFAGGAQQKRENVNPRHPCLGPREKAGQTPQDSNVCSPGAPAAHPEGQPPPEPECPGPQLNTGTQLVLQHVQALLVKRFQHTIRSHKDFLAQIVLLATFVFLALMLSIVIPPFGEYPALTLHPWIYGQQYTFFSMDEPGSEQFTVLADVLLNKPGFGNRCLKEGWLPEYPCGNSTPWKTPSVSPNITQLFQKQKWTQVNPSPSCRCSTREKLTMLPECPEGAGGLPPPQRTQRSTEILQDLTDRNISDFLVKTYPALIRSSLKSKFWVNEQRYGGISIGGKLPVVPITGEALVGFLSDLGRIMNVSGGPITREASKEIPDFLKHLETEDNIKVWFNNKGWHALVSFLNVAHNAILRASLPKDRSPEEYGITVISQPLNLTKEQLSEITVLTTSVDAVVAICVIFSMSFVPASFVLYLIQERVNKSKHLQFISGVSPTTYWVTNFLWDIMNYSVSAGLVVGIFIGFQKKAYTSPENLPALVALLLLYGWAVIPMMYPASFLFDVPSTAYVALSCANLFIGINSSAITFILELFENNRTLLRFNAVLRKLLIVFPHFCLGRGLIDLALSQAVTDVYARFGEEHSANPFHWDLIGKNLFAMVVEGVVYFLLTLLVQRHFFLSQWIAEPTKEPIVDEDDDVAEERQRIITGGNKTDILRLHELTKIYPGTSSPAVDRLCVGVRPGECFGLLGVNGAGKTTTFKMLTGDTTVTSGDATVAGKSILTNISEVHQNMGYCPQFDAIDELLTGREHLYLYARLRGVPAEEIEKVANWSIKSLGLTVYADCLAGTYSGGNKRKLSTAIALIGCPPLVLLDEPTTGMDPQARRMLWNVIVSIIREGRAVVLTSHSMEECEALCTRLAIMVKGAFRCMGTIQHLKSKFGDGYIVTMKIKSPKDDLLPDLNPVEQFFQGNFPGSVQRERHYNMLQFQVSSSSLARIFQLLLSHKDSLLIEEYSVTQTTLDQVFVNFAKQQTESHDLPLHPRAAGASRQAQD
The assay can be described thus: A4 correction dose-response assay: ABCA4 P1380L HiBit protein expression. The conditions noted are these: HEK-293 cells stably expressing HiBit-tagged ABCA4 P1380L; 24 h treatment; top concentration 30 μM; read-out: ABCA4 P1380L EC50, Emax. The method in brief: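 Cells transfected with HiBit-tagged human ABCA4 P1380L cDNA were treated for 24 h at 37°C with an eleven-point dilution series (top final 30 μM, 0.3% DMSO).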
(With HiBiT, luminescence reflects the tagged protein that the partner subunit can reach.)

The next assay has as its target T3, ABCB4 WT (Homo sapiens, UniProt P21439).
T3 construct: expressed in transfected cells
The assay can be described thus: ABCB4 WT assay: HiBit protein expression. Conditions: HEK-293 cells stably expressing HiBit-tagged ABCB4 WT; 24 h treatment; top concentration 30 μM; read-out: ABCB4 WT EC50, Emax. The method in brief:
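HEK-293 cells stably expressing HiBit-tagged human ABCB4 WT, treated 24 h at 37 °C with 11-dose 3-fold dilutions, top final 30 μM in 0.3% DMSO. HiBit lytic reagent luminescence read after 1 h at 25 °C; Emax and EC50 derived.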

T1 sequence (O95255 whole entry): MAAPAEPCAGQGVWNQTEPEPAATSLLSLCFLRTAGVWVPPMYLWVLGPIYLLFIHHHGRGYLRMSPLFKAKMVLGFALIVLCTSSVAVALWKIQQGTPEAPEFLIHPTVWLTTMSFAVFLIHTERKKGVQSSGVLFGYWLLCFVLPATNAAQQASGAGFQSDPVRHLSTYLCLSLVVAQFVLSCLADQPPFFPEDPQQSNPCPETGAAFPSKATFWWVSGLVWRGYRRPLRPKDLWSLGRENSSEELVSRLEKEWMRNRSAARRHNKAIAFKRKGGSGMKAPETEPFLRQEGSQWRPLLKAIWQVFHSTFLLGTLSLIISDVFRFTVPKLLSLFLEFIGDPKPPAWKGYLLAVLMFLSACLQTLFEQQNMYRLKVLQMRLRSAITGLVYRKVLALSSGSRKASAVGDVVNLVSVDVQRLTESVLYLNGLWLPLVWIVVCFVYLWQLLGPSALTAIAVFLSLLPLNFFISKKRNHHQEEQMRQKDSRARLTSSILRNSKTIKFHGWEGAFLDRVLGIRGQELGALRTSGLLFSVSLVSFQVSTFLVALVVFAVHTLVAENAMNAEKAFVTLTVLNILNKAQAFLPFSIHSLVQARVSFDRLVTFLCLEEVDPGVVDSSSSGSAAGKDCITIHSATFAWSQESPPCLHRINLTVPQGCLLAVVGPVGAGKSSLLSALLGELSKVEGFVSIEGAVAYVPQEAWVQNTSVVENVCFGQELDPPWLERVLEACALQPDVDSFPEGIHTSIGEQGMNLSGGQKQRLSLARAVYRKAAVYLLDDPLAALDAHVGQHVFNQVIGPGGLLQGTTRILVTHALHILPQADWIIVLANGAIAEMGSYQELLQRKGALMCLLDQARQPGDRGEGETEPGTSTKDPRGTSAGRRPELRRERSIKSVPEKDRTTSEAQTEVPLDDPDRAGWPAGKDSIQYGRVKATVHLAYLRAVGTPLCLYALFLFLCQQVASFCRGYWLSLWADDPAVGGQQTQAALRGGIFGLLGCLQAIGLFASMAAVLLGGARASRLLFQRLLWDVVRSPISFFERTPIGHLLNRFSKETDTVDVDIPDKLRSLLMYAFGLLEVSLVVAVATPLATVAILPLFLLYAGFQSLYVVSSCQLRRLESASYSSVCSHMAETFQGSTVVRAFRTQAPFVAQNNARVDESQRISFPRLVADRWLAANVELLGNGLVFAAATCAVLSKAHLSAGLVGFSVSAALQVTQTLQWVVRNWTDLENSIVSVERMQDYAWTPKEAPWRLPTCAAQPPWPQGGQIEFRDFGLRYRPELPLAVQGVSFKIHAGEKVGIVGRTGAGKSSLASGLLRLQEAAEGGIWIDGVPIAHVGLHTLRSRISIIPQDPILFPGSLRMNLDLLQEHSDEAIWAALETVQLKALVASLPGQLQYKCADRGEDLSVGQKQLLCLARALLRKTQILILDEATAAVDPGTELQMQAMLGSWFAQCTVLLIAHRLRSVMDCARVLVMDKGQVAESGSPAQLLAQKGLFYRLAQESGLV
T3 sequence (P21439 whole entry): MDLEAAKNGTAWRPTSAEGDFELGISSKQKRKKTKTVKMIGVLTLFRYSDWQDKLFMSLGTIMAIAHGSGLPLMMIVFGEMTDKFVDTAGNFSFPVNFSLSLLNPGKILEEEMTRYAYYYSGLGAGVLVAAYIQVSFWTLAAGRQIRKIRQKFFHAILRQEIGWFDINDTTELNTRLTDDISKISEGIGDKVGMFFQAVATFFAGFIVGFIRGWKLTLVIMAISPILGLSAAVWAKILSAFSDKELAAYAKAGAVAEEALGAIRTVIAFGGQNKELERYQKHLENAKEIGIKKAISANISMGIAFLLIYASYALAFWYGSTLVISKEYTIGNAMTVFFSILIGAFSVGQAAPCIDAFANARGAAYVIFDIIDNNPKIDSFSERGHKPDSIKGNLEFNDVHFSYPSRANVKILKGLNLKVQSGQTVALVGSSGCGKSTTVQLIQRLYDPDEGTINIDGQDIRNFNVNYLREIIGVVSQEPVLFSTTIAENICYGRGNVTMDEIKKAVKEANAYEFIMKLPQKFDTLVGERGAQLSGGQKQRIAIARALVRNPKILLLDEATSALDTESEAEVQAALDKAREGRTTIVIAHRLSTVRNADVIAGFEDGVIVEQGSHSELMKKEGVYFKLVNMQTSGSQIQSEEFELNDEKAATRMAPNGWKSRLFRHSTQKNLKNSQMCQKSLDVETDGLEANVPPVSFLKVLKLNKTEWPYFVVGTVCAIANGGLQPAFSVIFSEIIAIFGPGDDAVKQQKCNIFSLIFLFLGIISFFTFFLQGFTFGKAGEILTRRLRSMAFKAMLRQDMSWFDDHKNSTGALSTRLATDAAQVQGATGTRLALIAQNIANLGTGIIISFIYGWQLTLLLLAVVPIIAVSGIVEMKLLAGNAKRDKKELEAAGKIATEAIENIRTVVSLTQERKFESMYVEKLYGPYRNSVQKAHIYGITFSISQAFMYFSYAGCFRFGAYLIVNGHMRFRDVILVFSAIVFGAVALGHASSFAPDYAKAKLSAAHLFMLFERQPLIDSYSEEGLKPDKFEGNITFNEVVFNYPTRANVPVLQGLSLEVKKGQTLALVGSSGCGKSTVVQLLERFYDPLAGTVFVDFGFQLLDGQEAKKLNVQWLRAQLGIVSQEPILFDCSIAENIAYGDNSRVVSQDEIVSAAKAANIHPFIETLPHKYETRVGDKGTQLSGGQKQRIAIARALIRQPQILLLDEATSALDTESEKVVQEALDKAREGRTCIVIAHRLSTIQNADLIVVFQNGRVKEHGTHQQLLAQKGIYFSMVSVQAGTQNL

One may read the EC50 as the concentration giving half of the maximal effect. Regarding `Cc1cc(C2CC2)nc(C2CC2)c1Oc1nc(-c2cncc(C#N)c2)ccc1S(=N)(=O)C1CC1` (stereo not drawn) [Compound I-317], the EC50 was under 1 µM on ABCC6 WT, over 25 µM on ABCA4 P1380L and under 1 µM at ABCB4 WT.
In the case of `Cc1cc(C(F)F)cc(C2CC2)c1Oc1nc(-c2cncc(C#N)c2)ccc1S(=N)(=O)C1CC1` (stereo not drawn) [Compound I-319], the figures for the EC50 at ABCC6 WT, at ABCA4 P1380L and at ABCB4 WT were under 1 µM, over 25 µM and 1 to 10 µM, respectively.
The like results for `Cc1cc(C(F)F)nc(C2CC2)c1Oc1nc(-c2cncc(C#N)c2)ccc1S(=O)(=O)NC1CCOCC1` [Compound I-320] were, in that order, 1 to 10 µM, under 25 µM and under 25 µM.
For `Cc1cc(C(F)F)nc(C2CC2)c1Oc1nc(-c2cncc(C#N)c2)ccc1S(=O)(=O)NC1COC1` [Compound I-321], the results for the EC50 at ABCC6 WT, on ABCA4 P1380L and at ABCB4 WT were 1 to 10 µM, under 25 µM and 1 to 10 µM, respectively.
In the case of `Cc1cc(C2CC2)nc(C2CC2)c1Oc1nc(-c2cncc(C#N)c2)ccc1S(=O)(=O)NC1CCOCC1` [Compound I-322], the EC50 on ABCC6 WT is 1 to 10 µM; at ABCA4 P1380L it was 1 to 10 µM; at ABCB4 WT, under 25 µM.
With `Cc1cc(C)c(Oc2[nH]c(-c3cncc(C#N)c3)cc(=O)c2NS(C)(=O)=O)c(C)n1` [Compound I-325], the figures for the EC50 on ABCC6 WT, at ABCA4 P1380L and at ABCB4 WT were at least 25 µM, 1 to 10 µM and under 25 µM, respectively.
For `Cc1cc(C)c(Oc2nc(-c3cc(C#N)c[nH]c3=O)ccc2NS(C)(=O)=O)c(C)n1` [Compound I-326] the same measures were 1 to 10 µM, under 1 µM and under 25 µM.
The like results for `Cc1cc(C)c(Oc2nc(-c3cncc(C#N)c3)c(O)cc2NS(C)(=O)=O)c(C)n1` [Compound I-327] were, in that order, under 1 µM, under 1 µM and under 1 µM.

These data come from patent US20250228835A1, “PYRIDINYLOXYPYRIDINES AND RELATED COMPOUNDS AND THEIR USE IN TREATING MEDICAL CONDITIONS” (Rectify Pharmaceuticals, Inc., priority 2024, published 2025).
